Our source for the Activity, viability and IC50 values is ChEMBL document CHEMBL4706608, “Design and synthesis of 3-(4-pyridyl)-5-(4-sulfamido-phenyl)-1,2,4-oxadiazole derivatives as novel GSK-3β inhibitors and evaluation of their potential as multifunctional anti-Alzheimer agents” (Eur J Med Chem, 2021).

Structures are written as SMILES. pIC50: −log10 of the molar value. Calls of active or inactive are those of the source. No cut-off for these calls is given here.

In series [1] the test system is PC-12. Kind of series: Neuroprotective activity against H2O2-induced cytotoxicity in rat PC12 cells assessed as increase in cell viability at 30 uM preincubated for 3 hrs followed by H2O2 addition and measured after 24 hrs by MTT assay (reference value: 24.8 to 41.7%). The format is functional. On the technique in general: Tetrazolium assays rely on reduction of a dye to a coloured formazan, in cell work by metabolically active cells.

In series [2] the test system is PC-12. The experiment in a line: Neuroprotective activity against H2O2-induced cytotoxicity in rat PC12 cells assessed as increase in cell viability at 10 uM preincubated for 3 hrs followed by H2O2 addition and measured after 24 hrs by MTT assay (reference value: 24.8 to 41.7%). The format is functional.
Series [3] in a line: Cytotoxicity against rat PC-12 cells assessed as cell viability at 50 uM by MTT assay relative to control. The format is cell-based. Particulars: read-out: Activity.
Series [4] deals with BV-2. Kind of series: Anti-neuroinflammation in mouse BV2 cells assessed as inhibition of LPS-induced NO production preincubated for 1 hr followed by LPS addition measured after 24 hrs by Griess reagent based assay. The format is functional, cell-based.
Series [5] can be described thus: Cytotoxicity against rat PC-12 cells assessed as cell viability at 30 uM by MTT assay relative to control. Format: cell-based. The following applies: read-out: Activity.
Series [6] concerns the target Glycogen synthase kinase-3 beta (Homo sapiens, UniProt P49841). The experiment in a line: Inhibition of GSK3beta (unknown origin) measured after 40 mins by ADP-Glo assay. (In general: ADP-Glo first removes unused ATP, then detects ADP through luciferase.)
Series [7] concerns HepG2. Kind of series: Increase in glucose consumption in human HepG2 cells at 20 uM after 24 hrs by glucose oxidase assay. The format is functional, cell-based.

Sequence of Glycogen synthase kinase-3 beta (P49841 whole entry): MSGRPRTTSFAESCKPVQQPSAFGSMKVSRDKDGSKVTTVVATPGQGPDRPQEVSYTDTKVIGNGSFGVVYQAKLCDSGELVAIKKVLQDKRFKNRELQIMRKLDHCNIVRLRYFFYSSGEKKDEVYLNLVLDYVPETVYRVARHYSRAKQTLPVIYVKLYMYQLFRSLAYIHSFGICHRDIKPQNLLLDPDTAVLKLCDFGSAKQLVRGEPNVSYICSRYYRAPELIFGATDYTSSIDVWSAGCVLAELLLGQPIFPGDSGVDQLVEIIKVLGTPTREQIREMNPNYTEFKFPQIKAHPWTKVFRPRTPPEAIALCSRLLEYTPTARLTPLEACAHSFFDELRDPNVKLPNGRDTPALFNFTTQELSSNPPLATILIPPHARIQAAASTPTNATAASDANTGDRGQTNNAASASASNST

Usually pIC50 stands for −log10 of the IC50, conventionally taken in molar units. In the case of `CC(C)(C)c1ccc(S(=O)(=O)Nc2ccc(-c3nc(-c4ccnc(Nc5ccc(OC(F)(F)F)cc5)c4)no3)cc2)cc1`, the values for the Activity in series [1] and in series [2] were 63.1% and 48.1%, respectively. The viability at 50 µM in series [3] was found to be 95.3%. The pIC50 was 6.14 in series [4] and 5.12 in series [6]. In addition, the viability at 30 µM in series [5] came to 96.3%.

Consider `CC(C)(C)c1ccc(S(=O)(=O)Nc2ccc(-c3nc(-c4ccnc(Nc5ccc(Cl)cc5F)c4)no3)cc2)cc1`, for which the Activity was 49.6% in series [1] and 46% in series [2]. In series [3], the viability at 50 µM worked out at 88.5%. Moreover, the figures for the pIC50 in series [4] and in series [6] were 5.36 and 5.55, respectively. Also, the viability at 30 µM in series [5] amounted to 98.5%.

Turning to `O=S(=O)(Nc1ccc(-c2nc(-c3ccnc(Nc4ccc(OC(F)(F)F)cc4)c3)no2)cc1)c1cccc(C(F)(F)F)c1`, the Activity in series [1] is reported as 60.7%; in series [2] it was 54.6%. The outcome in series [7] was inactive. In addition, the viability at 50 µM in series [3] was determined as 90.4%. The pIC50 in series [4] was 5.83; in series [6], 5.58. Besides, the viability at 30 µM in series [5] is 97.4%.

Consider `O=S(=O)(Nc1ccc(-c2nc(-c3ccnc(Nc4ccc(OC(F)(F)F)cc4)c3)no2)cc1)c1ccc(OC(F)(F)F)cc1`, for which the results for the Activity in series [1] and in series [2] were 32.4% and 30.6%, respectively. For the same compound, the viability at 50 µM in series [3] came to 100%. Also, the pIC50 is 5.37 in series [4] and 5.06 in series [6]. Moreover, the viability at 30 µM in series [5] was 98.7%.

For the compound `O=S(=O)(Nc1ccc(-c2nc(-c3ccnc(Nc4ccc(OC(F)(F)F)cc4)c3)no2)cc1)c1ccc(F)c(Cl)c1`, the Activity is on record as 40.1% in series [1] and 36.9% in series [2]. Further, the viability at 50 µM in series [3] worked out at 92.1%. Moreover, the pIC50 in series [4] was 5.30; in series [6] it was 4.72. Moreover, the viability at 30 µM in series [5] amounted to 98.1%.

Turning to `COc1ccc(Nc2cc(-c3noc(-c4ccc(NS(=O)(=O)c5ccc(C(C)(C)C)cc5)cc4)n3)ccn2)cc1`, the figures for the Activity in series [1] and in series [2] were 48.1% and 44.5%, respectively. The viability at 50 µM in series [3] is 91.6%. In addition, the pIC50 in series [4] was 5.21; in series [6], 5.00. The viability at 30 µM in series [5] came to 98.6%.

Regarding `O=c1c(O)c(-c2ccc(O)c(O)c2)oc2cc(O)cc(O)c12` [QUERCETIN], the Activity in series [1] is recorded as 65.7%; in series [2], 53.4%. Further, the viability at 50 µM in series [3] was found to be 99.5%. Moreover, the viability at 30 µM in series [5] was 99.1%.

For `O=S(=O)(Nc1ccc(-c2nc(-c3ccnc(Nc4ccc(OC(F)(F)F)cc4)c3)no2)cc1)c1ccc(Cl)s1`, the Activity in series [1] was found to be 32.7%; in series [2] it was 27.1%. Moreover, the viability at 50 µM in series [3] is 87.9%. Moreover, the pIC50 was 5.21 in series [4] and 5.53 in series [6]. Further, in series [5], the viability at 30 µM turned out to be 97.9%.

As for `CC(C)(C)c1ccc(S(=O)(=O)Nc2ccc(-c3nc(-c4ccnc(Nc5ccc(C(F)(F)F)cc5)c4)no3)cc2)cc1`, the Activity in series [1] was 71.9%; in series [2], 63.2%. The viability at 50 µM in series [3] was 94.1%. The figures for the pIC50 in series [4] and in series [6] were 5.06 and 5.83, respectively. In addition, in series [5], the viability at 30 µM is 99.1%.

As to `O=S(=O)(Nc1ccc(-c2nc(-c3ccnc(Nc4ccc(OC(F)(F)F)cc4)c3)no2)cc1)c1ccc(F)cc1`, the Activity in series [1] was 67.3%; in series [2], 59.4%. The viability at 50 µM in series [3] amounted to 97.9%. Also, the pIC50 was 5.36 in series [4] and 5.57 in series [6]. The viability at 30 µM in series [5] worked out at 99.9%.

For the compound `CC(C)(C)c1ccc(S(=O)(=O)Nc2ccc(-c3nc(-c4ccnc(Nc5ccc(F)c(C(F)(F)F)c5)c4)no3)cc2)cc1`, the Activity amounted to 61.7% in series [1] and 48.9% in series [2]. Also, the viability at 50 µM in series [3] is 75.9%. Also, the pIC50 in series [4] was 5.05; in series [6], 5.41. In addition, in series [5], the viability at 30 µM was determined as 98.9%.

`O=[N+]([O-])c1cccc(S(=O)(=O)Nc2ccc(-c3nc(-c4ccnc(Nc5ccc(OC(F)(F)F)cc5)c4)no3)cc2)c1`: the Activity is 64.7% in series [1] and 53.7% in series [2]. Also, the viability at 50 µM in series [3] worked out at 94.3%. Moreover, the pIC50 in series [4] was 5.67; in series [6], 5.08. Further, in series [5], the viability at 30 µM was found to be 94.3%.

`Cc1cccc(Nc2cc(-c3noc(-c4ccc(NS(=O)(=O)c5ccc(C(C)(C)C)cc5)cc4)n3)ccn2)c1`: the Activity is listed as 68.5% in series [1] and 52.3% in series [2]. Besides, the viability at 50 µM in series [3] worked out at 93.8%. For the same compound, the pIC50 is 4.98 in series [4] and 6.03 in series [6]. Moreover, the viability at 30 µM in series [5] was determined as 93.8%.

`Oc1ccc(/C=C/c2cc(O)cc(O)c2)cc1` [RESVERATROL]: the pIC50 in series [4] is 4.99.

As for `CC(C)c1ccc(Nc2cc(-c3noc(-c4ccc(NS(=O)(=O)c5ccc(C(C)(C)C)cc5)cc4)n3)ccn2)cc1`, the Activity in series [1] was 54.4%; in series [2], 48.3%. Further, the viability at 50 µM in series [3] turned out to be 78.8%. In addition, the pIC50 in series [4] was 5.11; in series [6], 5.68. For the same compound, in series [5], the viability at 30 µM turned out to be 98.8%.

With `COC(=O)c1ccc(S(=O)(=O)Nc2ccc(-c3nc(-c4ccnc(Nc5ccc(OC(F)(F)F)cc5)c4)no3)cc2)s1`, the Activity in series [1] turned out to be 30.6%; in series [2], 25.6%. Also, in series [3], the viability at 50 µM was determined as 98.6%. Moreover, the pIC50 in series [4] is 5.88; in series [6], 5.92. The viability at 30 µM in series [5] came to 97.2%.

For the compound `Cc1ccccc1Nc1cc(-c2noc(-c3ccc(NS(=O)(=O)c4ccc(C(C)(C)C)cc4)cc3)n2)ccn1`, the results for the Activity in series [1] and in series [2] were 69.3% and 51.5%, respectively. Moreover, the viability at 50 µM in series [3] came to 99.3%. Also, the results for the pIC50 in series [4] and in series [6] were 5.22 and 5.64, respectively. The viability at 30 µM in series [5] was 100%.

Regarding `Cc1ccc(Nc2cc(-c3noc(-c4ccc(NS(=O)(=O)c5ccc(C(C)(C)C)cc5)cc4)n3)ccn2)cc1`, the figures for the Activity in series [1] and in series [2] were 64.4% and 59.4%, respectively. In series [3], the viability at 50 µM worked out at 87.9%. Further, the figures for the pIC50 in series [4] and in series [6] were 5.82 and 5.34, respectively. For the same compound, the viability at 30 µM in series [5] was found to be 97.9%.

Take `CCc1ccc(Nc2cc(-c3noc(-c4ccc(NS(=O)(=O)c5ccc(C(C)(C)C)cc5)cc4)n3)ccn2)cc1`: the Activity in series [1] is reported as 36.6%; in series [2], 31.5%. The viability at 50 µM in series [3] came out at 83.6%. The figures for the pIC50 in series [4] and in series [6] were 5.27 and 5.49, respectively. Besides, the viability at 30 µM in series [5] was determined as 98.6%.

Regarding `O=S(=O)(Nc1ccc(-c2nc(-c3ccnc(Nc4ccc(OC(F)(F)F)cc4)c3)no2)cc1)c1ccccc1OC(F)(F)F`, the figures for the Activity in series [1] and in series [2] were 49.8% and 40.4%, respectively. The viability at 50 µM in series [3] turned out to be 85.6%. Also, the values for the pIC50 in series [4] and in series [6] were 5.60 and 5.92, respectively. Also, the viability at 30 µM in series [5] is 91.6%.

As for `O=S(=O)(Nc1ccc(-c2nc(-c3ccnc(Nc4ccc(OC(F)(F)F)cc4)c3)no2)cc1)c1ccc(Br)cc1`, the Activity in series [1] was found to be 55.8%; in series [2] it was 52.3%. Also, in series [3], the viability at 50 µM was found to be 82.5%. For the same compound, the results for the pIC50 in series [4] and in series [6] were 5.29 and 5.51, respectively. Moreover, the viability at 30 µM in series [5] was 102%.
